In US11596644B2, “Method for treating post-prandial hypoglycemia” (AVOLYNT, priority 2018, dated 2023):

Legend:
[1] = tested on: normal Sprague Dawley rats; experiment: Mixed carbohydrate tolerance test in normal rats; format: in vivo, rat
Description: Study on normal rats. The efficacy of mizagliflozin (decreasing plasma glucose levels) in normal Sprague Dawley rats was determined in a mixed carbohydrate tolerance test. Normal rats were fasted for 16 hours and then given an oral loading dose of 2.0 g/kg of mixed carbohydrate (soluble starch:sucrose:lactose monohydrate=6:3:1). Mizagliflozin (KGA-3235 sebacate), or water as the vehicle control, was then administered as a single oral dose to groups of male rats (n=8/group) at doses of 0.03, 0.1, 0.3, and 1 mg/kg. Voglibose, a glucosidase inhibitor similar to acarbose, was used as a positive control and was administered as a single oral dose to male rats (n=8/group) at dose levels of 0.1, 0.3 and 1 mg/kg. Blood samples were collected just prior to loading with mixed carbohydrate and at 0.5, 1, 2, 3, 4, and 6 hours after loading.

[2] = Excretion after oral dosing in non-human primates; format: in vivo
Excerpt: Accordingly, the SGLT1 inhibitor compounds of Formula I or Formula II are locally acting in the gut, and have poor systemic exposure. […] Systemic exposure (e.g., Cmax) can be measured by methods well known in the art, including liquid chromatography mass spectrometry.

[3] = tested on: Diet-induced obese (DIO) marmoset; experiment: Two-week dosing and OGTT in diet-induced obese marmosets; format: in vivo
Description: Study on plasma glucose levels in marmosets. Mizagliflozin was evaluated in the Diet-induced obese (DIO) marmoset, a polygenic non-human primate model of obesity. Rimonabant, a canabinoid receptor (CB-1) antagonist that was marketed by Sanofi-Aventis for weight loss in obese patients, was administered at a maximal effective dose of 20 mg/kg twice daily as a positive control. Mizagliflozin was administered orally twice daily to DIO male marmosets (n=8/group) for 2 weeks at BID doses of 3 and 30 mg/kg/day (or only vehicle, aqueous hydroxypropylmethyl-cellulose 0.1%). Effects on body weight and body composition, and serum chemistry parameters were measured and glucose excursions during post-treatment OGTTs were also determined after administration of an oral loading dose of glucose (2.0 g/kg).

[4] = tested on: STZ-induced diabetic rats; experiment: Oral glucose tolerance test in STZ-induced diabetic rats (Example 4); format: in vivo, rat
Description: Study in diabetic rats using oral glucose tolerance test. Efficacy of mizagliflozin was tested in a rat model for diabetes using an oral glucose tolerance test (OGTT). Diabetic model rats were prepared by intravenous administration of STZ to induce diabetes. Seven days after STZ administration, rats were fasted for 16 hours and then given an oral loading dose of 2.0 g/kg of glucose. Mizagliflozin, or water as the vehicle control, was then administered as a single oral dose to groups of male rats (n=8/group) at doses of 0.03, 0.1, 0.3, and 1 mg/kg. Another control group was given vehicle and consisted of normal male Sprague Dawley rats that were not administrated STZ. Voglibose was also administered as a single oral dose to male rats (n=8/group) at dose levels of 0.1, 0.3 and 1 mg/kg. Blood samples were collected just prior to loading with mixed carbohydrate and at 0.5, 1, 2, 3, 4, and 6 hours after loading. Plasma glucose concentrations were determined and ΔAUC0-1 h for plasma glucose was calculated.

[5] = tested on: STZ-induced diabetic rats; experiment: Oral mixed-carbohydrate tolerance test (OMCTT) in STZ-induced diabetic rats (Example 9); format: in vivo, rat; settings: for Plasma glucose 0 hr: before dosing; for Plasma glucose 0 hr / Plasma glucose 0.5 hr / Plasma glucose 1 hr / Plasma glucose 2 hr / Plasma glucose 3 hr / ΔAUC (0-1) / ΔAUC (0-1) (% of Control): mixed-carbohydrate load, mean ± S.E.M.
Description: Study in diabetic rats with mixed carbohydrates. Diabetic rats, induced by intravenous injection of streptozotocin (STZ; 40 mg/kg), were used to determining plasma glucose concentration (PG) 1 hr after oral mixed-carbohydrate tolerance test (OMCTT). […] Blood was collected via the caudal artery immediately before dosing and 0.5, 1, 2, and 3 hr after dosing. The glucose concentration measurement in plasma used Glucose CII-Test Wako kit (Wako Pure Chemicals Industries, Ltd., Osaka, Japan). The variables used for efficacy assessment were the measurement values of the plasma glucose concentration and the area under the curve for plasma glucose concentration through 1 hr after loading (ΔAUC0-1 hr). The ΔAUC0-1 hr for plasma glucose was calculated based on the trapezoid method using the change of plasma glucose concentrations from pre-value (0 hr).

For `Cc1cc(OCCCNCC(C)(C)C(N)=O)ccc1Cc1c(O[C@@H]2O[C@H](CO)[C@@H](O)[C@H](O)[C@H]2O)n[nH]c1C(C)C` [mizagliflozin, 3-(3-{4-[3-(β-D-glucopyranosyloxy)-5-isopropyl-1H-pyrazol-4-ylmethyl-]-3-methylphenoxy}propylamino)-2,2-dimethylpropionamide], the ED50 ([1]; Rattus norvegicus, read-out: ED50 calculated from mean ΔAUC0-1 h (% of control), mixed carbohydrate 2.0 g/kg, single oral dose) was 0.13 mg/kg, the “ΔAUC0-1 h of plasma glucose versus vehicle control” value ([1]; mixed carbohydrate 2.0 g/kg) was “significantly lowered” and the “excreted in the feces” value [2] was > 82 % of orally administered dose. For the same compound, the signs of diarrhea ([3]; 2 weeks dosing) was “No signs of diarrhea were observed”, the “effects on body weight, body composition (fat or lean mass) and serum chemistry parameters” value ([3]; 3 and 30 mg/kg, oral twice daily, 2 weeks) was “no significant effects” and the “glucose excursions during post-treatment OGTT” value ([3]; two weeks dosing, glucose 2.0 g/kg) was “blunting of the glucose excursions”. The ED50 ([4]; Rattus norvegicus, read-out: ED50 calculated from mean ΔAUC0-1 h (% of control), glucose 2.0 g/kg, single oral dose) was 0.099 mg/kg, the “ΔAUC0-1 h of plasma glucose versus vehicle control” value ([4]; glucose 2.0 g/kg) was “significantly lowered” and the “Plasma glucose 0 hr” value ([5]; 0.03 mg/kg oral) was 120 ± 9 mg/dL. The “Plasma glucose 0.5 hr” value ([5]; 0.03 mg/kg oral) was 289 ± 43 mg/dL, the “Plasma glucose 1 hr” value ([5]; 0.03 mg/kg oral) was 245 ± 28 mg/dL and the “Plasma glucose 2 hr” value ([5]; 0.03 mg/kg oral) was 129 ± 4 mg/dL. For the same compound, the “Plasma glucose 3 hr” value ([5]; 0.03 mg/kg oral) was 106 ± 4 mg/dL, the “ΔAUC (0-1)” value ([5]; 0.03 mg/kg oral) was 116 ± 25 mg·h/dL and the “ΔAUC (0-1) (% of Control)” value ([5]; 0.03 mg/kg oral) was 71 ± 15 % of Control. The “Plasma glucose 0 hr” value ([5]; 0.1 mg/kg oral) was 128 ± 13 mg/dL, the “Plasma glucose 0.5 hr” value ([5]; 0.1 mg/kg oral) was 261 ± 44 mg/dL and the “Plasma glucose 1 hr” value ([5]; 0.1 mg/kg oral) was 234 ± 37 mg/dL. For the same compound, the “Plasma glucose 2 hr” value ([5]; 0.1 mg/kg oral) was 136 ± 16 mg/dL, the “Plasma glucose 3 hr” value ([5]; 0.1 mg/kg oral) was 98 ± 8 mg/dL and the “ΔAUC (0-1)” value ([5]; 0.1 mg/kg oral) was 93 ± 20 mg·h/dL. The “ΔAUC (0-1) (% of Control)” value ([5]; 0.1 mg/kg oral) was 57 ± 12 % of Control and the “PG elevation after glucose administration” value ([5]; 0.03 and 0.1 mg/kg oral, OMCTT) was “inhibited PG elevation after glucose administration dose dependently”.
